From PMC4061985 (Journal of immunology (Baltimore, Md. : 1950), 2009) come the findings set out here.

Residues, ends and D or L forms follow the SMILES beside them.

The assay concerns the target HLA-DR0901 protein (Homo sapiens, UniProt P01903+P01911, A100R/A103E/D57H/D86V/F55Y/F60I/F76Y/I96F/K127E/L162R/M171V/P40D/Q125H/Q99R/R33Q/R42F/S133A/S66N/T210M/V115G/W38K/Y107V/Y59G/Y89S). Put plainly: Peptide binding competition assay, DR0901.
By Kd is commonly meant the free concentration of one partner at which half of the binding sites on the other are occupied at equilibrium, for simple one-to-one binding. Lower therefore signals higher affinity. The compound `CC[C@H](C)[C@H](NC(=O)[C@H](CCCCN)NC(=O)[C@H](CC(=O)O)NC(=O)[C@H](CC(C)C)NC(=O)[C@H](CCC(=O)O)NC(=O)[C@H](Cc1ccc(O)cc1)NC(=O)[C@H](CC(N)=O)NC(=O)[C@H](Cc1ccccc1)NC(=O)[C@H](CC(N)=O)NC(=O)[C@@H](N)CC(C)C)C(=O)N[C@H](C(=O)N[C@H](C(=O)N[C@@H](CC(=O)O)C(=O)O)C(C)C)[C@@H](C)CC` [LNFNYELDKIIVD] (H-LNFNYELDKIIVD-OH) had a Kd of 116000 nM.
As for `CC[C@H](C)[C@H](NC(=O)[C@H](CCCCN)NC(=O)[C@H](CC(=O)O)NC(=O)[C@H](CC(C)C)NC(=O)[C@H](CO)NC(=O)[C@H](Cc1ccc(O)cc1)NC(=O)[C@H](CC(N)=O)NC(=O)[C@H](Cc1ccccc1)NC(=O)[C@H](CC(N)=O)NC(=O)[C@@H](N)CC(C)C)C(=O)N[C@@H](CC(N)=O)C(=O)N[C@H](C(=O)N[C@@H](CC(=O)O)C(=O)O)C(C)C` [LNFNYSLDKINVD] (H-LNFNYSLDKINVD-OH), the Kd is 2600 nM.
In the case of `CC[C@H](C)[C@H](NC(=O)[C@H](CCCCN)NC(=O)[C@H](CC(C)C)NC(=O)[C@H](CC(C)C)NC(=O)[C@H](CO)NC(=O)[C@H](Cc1ccc(O)cc1)NC(=O)[C@H](CC(N)=O)NC(=O)[C@H](Cc1ccccc1)NC(=O)[C@H](CC(N)=O)NC(=O)[C@@H](N)CC(C)C)C(=O)N[C@H](C(=O)N[C@H](C(=O)N[C@@H](CC(=O)O)C(=O)O)C(C)C)[C@@H](C)CC` [LNFNYSLLKIIVD] (H-LNFNYSLLKIIVD-OH) it was 67 ± 8 nM; in that of `CC[C@H](C)[C@H](NC(=O)[C@H](CCCCN)NC(=O)[C@H](CC(=O)O)NC(=O)[C@H](CC(C)C)NC(=O)[C@H](CO)NC(=O)[C@H](Cc1ccc(O)cc1)NC(=O)[C@H](CC(N)=O)NC(=O)[C@H](Cc1ccccc1)NC(=O)[C@H](CC(N)=O)NC(=O)[C@@H](N)CC(C)C)C(=O)N[C@@H](CCC(=O)O)C(=O)N[C@H](C(=O)N[C@@H](CC(=O)O)C(=O)O)C(C)C` [LNFNYSLDKIEVD] (H-LNFNYSLDKIEVD-OH), 890 ± 290 nM.
Then `CC[C@H](C)[C@H](NC(=O)[C@H](CCCNC(=N)N)NC(=O)[C@H](CC(=O)O)NC(=O)[C@H](CC(C)C)NC(=O)[C@H](CO)NC(=O)[C@H](Cc1ccc(O)cc1)NC(=O)[C@H](CC(N)=O)NC(=O)[C@H](Cc1ccccc1)NC(=O)[C@H](CC(N)=O)NC(=O)[C@@H](N)CC(C)C)C(=O)N[C@H](C(=O)N[C@H](C(=O)N[C@@H](CC(=O)O)C(=O)O)C(C)C)[C@@H](C)CC` [LNFNYSLDRIIVD] (H-LNFNYSLDRIIVD-OH), with 53 ± 10 nM; and `CC[C@H](C)[C@H](NC(=O)[C@H](CCCCN)NC(=O)[C@H](CC(=O)O)NC(=O)[C@H](CC(C)C)NC(=O)[C@H](CC(N)=O)NC(=O)[C@H](Cc1ccc(O)cc1)NC(=O)[C@H](CC(N)=O)NC(=O)[C@H](Cc1ccccc1)NC(=O)[C@H](CC(N)=O)NC(=O)[C@@H](N)CC(C)C)C(=O)N[C@H](C(=O)N[C@H](C(=O)N[C@@H](CC(=O)O)C(=O)O)C(C)C)[C@@H](C)CC` [LNFNYNLDKIIVD] (H-LNFNYNLDKIIVD-OH), with 290 ± 90 nM; and `CC[C@H](C)[C@H](NC(=O)[C@H](CCCCN)NC(=O)[C@H](CC(=O)O)NC(=O)[C@H](CC(C)C)NC(=O)[C@H](CO)NC(=O)[C@H](Cc1ccc(O)cc1)NC(=O)[C@H](CC(N)=O)NC(=O)[C@H](Cc1ccccc1)NC(=O)[C@H](CC(N)=O)NC(=O)[C@@H](N)CC(C)C)C(=O)N1CCC[C@H]1C(=O)N[C@H](C(=O)N[C@@H](CC(=O)O)C(=O)O)C(C)C` [LNFNYSLDKIPVD] (H-LNFNYSLDKIPVD-OH), with 1700 nM.
In the case of `CC[C@H](C)[C@H](NC(=O)[C@H](CCCCN)NC(=O)[C@H](CC(=O)O)NC(=O)[C@H](CC(C)C)NC(=O)[C@H](CO)NC(=O)[C@H](Cc1ccc(O)cc1)NC(=O)[C@H](CC(N)=O)NC(=O)[C@H](Cc1ccccc1)NC(=O)[C@H](CC(N)=O)NC(=O)[C@@H](N)CC(C)C)C(=O)N[C@H](C(=O)N[C@H](C(=O)N[C@@H](CC(=O)O)C(=O)O)C(C)C)[C@@H](C)CC` [LNFNYSLDKIIVD] (H-LNFNYSLDKIIVD-OH) it was 73 ± 16 nM.
Compound `CC[C@H](C)[C@H](NC(=O)[C@H](CCCCN)NC(=O)[C@H](CC(=O)O)NC(=O)[C@H](CC(C)C)NC(=O)[C@H](CO)NC(=O)[C@H](Cc1ccc(O)cc1)NC(=O)[C@H](CC(N)=O)NC(=O)[C@H](Cc1ccccc1)NC(=O)[C@H](CC(N)=O)NC(=O)[C@@H](N)CC(C)C)C(=O)N[C@@H](CCCNC(=N)N)C(=O)N[C@H](C(=O)N[C@@H](CC(=O)O)C(=O)O)C(C)C` [LNFNYSLDKIRVD] (H-LNFNYSLDKIRVD-OH) had a dissociation constant Kd of 6700 nM.
In the case of `CC[C@H](C)[C@H](NC(=O)[C@H](CCCCN)NC(=O)[C@H](CO)NC(=O)[C@H](CC(C)C)NC(=O)[C@H](CO)NC(=O)[C@H](Cc1ccc(O)cc1)NC(=O)[C@H](CC(N)=O)NC(=O)[C@H](Cc1ccccc1)NC(=O)[C@H](CC(N)=O)NC(=O)[C@@H](N)CC(C)C)C(=O)N[C@H](C(=O)N[C@H](C(=O)N[C@@H](CC(=O)O)C(=O)O)C(C)C)[C@@H](C)CC` [LNFNYSLSKIIVD] (H-LNFNYSLSKIIVD-OH) it was 31 ± 3 nM.
In the case of `CC[C@H](C)[C@H](NC(=O)[C@H](CCCCN)NC(=O)[C@@H]1CCCN1C(=O)[C@H](CC(C)C)NC(=O)[C@H](CO)NC(=O)[C@H](Cc1ccc(O)cc1)NC(=O)[C@H](CC(N)=O)NC(=O)[C@H](Cc1ccccc1)NC(=O)[C@H](CC(N)=O)NC(=O)[C@@H](N)CC(C)C)C(=O)N[C@H](C(=O)N[C@H](C(=O)N[C@@H](CC(=O)O)C(=O)O)C(C)C)[C@@H](C)CC` [LNFNYSLPKIIVD] (H-LNFNYSLPKIIVD-OH) it was 31 ± 2 nM; in that of `CC[C@H](C)[C@H](NC(=O)[C@H](CCCCN)NC(=O)[C@H](CC(=O)O)NC(=O)[C@H](CC(C)C)NC(=O)[C@H](CC(C)C)NC(=O)[C@H](Cc1ccc(O)cc1)NC(=O)[C@H](CC(N)=O)NC(=O)[C@H](Cc1ccccc1)NC(=O)[C@H](CC(N)=O)NC(=O)[C@@H](N)CC(C)C)C(=O)N[C@H](C(=O)N[C@H](C(=O)N[C@@H](CC(=O)O)C(=O)O)C(C)C)[C@@H](C)CC` [LNFNYLLDKIIVD] (H-LNFNYLLDKIIVD-OH), 3600 nM.
In the case of `CC[C@H](C)[C@H](NC(=O)[C@H](CC(=O)O)NC(=O)[C@H](CC(=O)O)NC(=O)[C@H](CC(C)C)NC(=O)[C@H](CO)NC(=O)[C@H](Cc1ccc(O)cc1)NC(=O)[C@H](CC(N)=O)NC(=O)[C@H](Cc1ccccc1)NC(=O)[C@H](CC(N)=O)NC(=O)[C@@H](N)CC(C)C)C(=O)N[C@H](C(=O)N[C@H](C(=O)N[C@@H](CC(=O)O)C(=O)O)C(C)C)[C@@H](C)CC` [LNFNYSLDDIIVD] (H-LNFNYSLDDIIVD-OH) it was 176 ± 65 nM.
`CC[C@H](C)[C@H](NC(=O)[C@H](CCCCN)NC(=O)[C@H](CCSC)NC(=O)[C@H](CC(C)C)NC(=O)[C@H](CO)NC(=O)[C@H](Cc1ccc(O)cc1)NC(=O)[C@H](CC(N)=O)NC(=O)[C@H](Cc1ccccc1)NC(=O)[C@H](CC(N)=O)NC(=O)[C@@H](N)CC(C)C)C(=O)N[C@H](C(=O)N[C@H](C(=O)N[C@@H](CC(=O)O)C(=O)O)C(C)C)[C@@H](C)CC` [LNFNYSLMKIIVD] (H-LNFNYSLMKIIVD-OH) displayed a Kd of 46 ± 2 nM.
The compound `CC[C@H](C)[C@H](NC(=O)[C@H](CCCCN)NC(=O)[C@H](CC(=O)O)NC(=O)[C@H](CC(C)C)NC(=O)[C@H](C)NC(=O)[C@H](Cc1ccc(O)cc1)NC(=O)[C@H](CC(N)=O)NC(=O)[C@H](Cc1ccccc1)NC(=O)[C@H](CC(N)=O)NC(=O)[C@@H](N)CC(C)C)C(=O)N[C@H](C(=O)N[C@H](C(=O)N[C@@H](CC(=O)O)C(=O)O)C(C)C)[C@@H](C)CC` [LNFNYALDKIIVD] (H-LNFNYALDKIIVD-OH) came in with a Kd of 55 ± 10 nM.
In the case of `CC[C@H](C)[C@H](NC(=O)[C@H](CCCCN)NC(=O)[C@H](CC(=O)O)NC(=O)[C@H](CC(C)C)NC(=O)[C@H](CO)NC(=O)[C@H](Cc1ccc(O)cc1)NC(=O)[C@H](CC(N)=O)NC(=O)[C@H](Cc1ccccc1)NC(=O)[C@H](CC(N)=O)NC(=O)[C@@H](N)CC(C)C)C(=O)N[C@@H](Cc1c[nH]cn1)C(=O)N[C@H](C(=O)N[C@@H](CC(=O)O)C(=O)O)C(C)C` [LNFNYSLDKIHVD] (H-LNFNYSLDKIHVD-OH) it was 740 ± 170 nM; in that of `CC[C@H](C)[C@H](NC(=O)[C@H](CCCCN)NC(=O)[C@H](CC(=O)O)NC(=O)[C@H](CC(C)C)NC(=O)[C@H](CCCNC(=N)N)NC(=O)[C@H](Cc1ccc(O)cc1)NC(=O)[C@H](CC(N)=O)NC(=O)[C@H](Cc1ccccc1)NC(=O)[C@H](CC(N)=O)NC(=O)[C@@H](N)CC(C)C)C(=O)N[C@H](C(=O)N[C@H](C(=O)N[C@@H](CC(=O)O)C(=O)O)C(C)C)[C@@H](C)CC` [LNFNYRLDKIIVD] (H-LNFNYRLDKIIVD-OH), 1230 nM; in that of `CC[C@H](C)[C@H](NC(=O)[C@H](CCCCN)NC(=O)[C@H](CC(=O)O)NC(=O)[C@H](CC(C)C)NC(=O)[C@H](Cc1ccc(O)cc1)NC(=O)[C@H](Cc1ccc(O)cc1)NC(=O)[C@H](CC(N)=O)NC(=O)[C@H](Cc1ccccc1)NC(=O)[C@H](CC(N)=O)NC(=O)[C@@H](N)CC(C)C)C(=O)N[C@H](C(=O)N[C@H](C(=O)N[C@@H](CC(=O)O)C(=O)O)C(C)C)[C@@H](C)CC` [LNFNYYLDKIIVD] (H-LNFNYYLDKIIVD-OH), 3400 nM.
In the case of `CC[C@H](C)[C@H](NC(=O)[C@H](CCCCN)NC(=O)[C@H](CC(N)=O)NC(=O)[C@H](CC(C)C)NC(=O)[C@H](CO)NC(=O)[C@H](Cc1ccc(O)cc1)NC(=O)[C@H](CC(N)=O)NC(=O)[C@H](Cc1ccccc1)NC(=O)[C@H](CC(N)=O)NC(=O)[C@@H](N)CC(C)C)C(=O)N[C@H](C(=O)N[C@H](C(=O)N[C@@H](CC(=O)O)C(=O)O)C(C)C)[C@@H](C)CC` [LNFNYSLNKIIVD] (H-LNFNYSLNKIIVD-OH) it was 93 ± 19 nM.
For the compound `CC[C@H](C)[C@H](NC(=O)[C@H](Cc1ccccc1)NC(=O)[C@H](CC(=O)O)NC(=O)[C@H](CC(C)C)NC(=O)[C@H](CO)NC(=O)[C@H](Cc1ccc(O)cc1)NC(=O)[C@H](CC(N)=O)NC(=O)[C@H](Cc1ccccc1)NC(=O)[C@H](CC(N)=O)NC(=O)[C@@H](N)CC(C)C)C(=O)N[C@H](C(=O)N[C@H](C(=O)N[C@@H](CC(=O)O)C(=O)O)C(C)C)[C@@H](C)CC` [LNFNYSLDFIIVD] (H-LNFNYSLDFIIVD-OH), the Kd came to 28 ± 6 nM. This Kd lies about 3.3-fold lower than the previous one.
